Reference: ChEMBL document CHEMBL3112480, “γ-Alkylidene-γ-lactones and isobutylpyrrol-2(5H)-ones analogues to rubrolides as inhibitors of biofilm formation by gram-positive and gram-negative bacteria” (Bioorg Med Chem Lett, 2014)
Converted amounts (≈) assume the structure as drawn.

Assays:
[1] = tested on: Streptococcus mutans; assay: Antibacterial activity against Streptococcus mutans OMZ175 assessed as inhibition of biofilm formation at 6 uM relative to control; type: functional
[2] = tested on: Pseudomonas aeruginosa; assay: Antibacterial activity against Pseudomonas aeruginosa ATCC 27853 assessed as effect on planktonic growth at 1.37 ug/ml after 20 hrs relative to control; type: functional
[3] = tested on: Staphylococcus epidermidis; assay: Antibacterial activity against Staphylococcus epidermidis ATCC 35547 assessed as effect on planktonic growth at 2.73 ug/ml after 20 hrs relative to control; type: functional
[4] = tested on: Streptococcus mutans; assay: Antibacterial activity against Streptococcus mutans ATCC 25175 assessed as effect on planktonic growth at 0.68 ug/ml after 20 hrs relative to control; type: functional
[5] = tested on: Staphylococcus epidermidis; assay: Antibacterial activity against Staphylococcus epidermidis ATCC 35547 assessed as effect on planktonic growth at 10.9 ug/ml after 20 hrs relative to control; type: functional
[6] = tested on: Staphylococcus aureus; assay: Antibacterial activity against Staphylococcus aureus ATCC 25923 assessed as effect on planktonic growth at 5.5 ug/ml after 20 hrs relative to control; type: functional
[7] = tested on: Streptococcus mutans; assay: Antibacterial activity against Streptococcus mutans ATCC 25175 assessed as effect on planktonic growth at 10.9 ug/ml after 20 hrs relative to control; type: functional
[8] = tested on: Streptococcus mutans; assay: Antibacterial activity against Streptococcus mutans ATCC 25175 assessed as effect on planktonic growth at 87.5 ug/ml after 20 hrs relative to control; type: functional
[9] = tested on: Staphylococcus aureus; assay: Antibacterial activity against Staphylococcus aureus ATCC 25923 assessed as effect on planktonic growth at 87.5 ug/ml after 20 hrs relative to control; type: functional
[10] = tested on: Streptococcus mutans; assay: Antibacterial activity against Streptococcus mutans ATCC 25175 assessed as inhibition of biofilm formation at 44 ug/ml after 20 hrs by crystal-violet staining method relative to control; type: functional; conditions: ATCC 25175, 20 h
[11] = tested on: Streptococcus mutans; assay: Antibacterial activity against Streptococcus mutans ATCC 25175 assessed as effect on planktonic growth at 21.9 ug/ml after 20 hrs relative to control; type: functional
[12] = tested on: Staphylococcus epidermidis; assay: Antibacterial activity against Staphylococcus epidermidis ATCC 35547 assessed as effect on planktonic growth at 21.9 ug/ml after 20 hrs relative to control; type: functional
[13] = tested on: Staphylococcus epidermidis; assay: Antibacterial activity against Staphylococcus epidermidis ATCC 35547 assessed as effect on planktonic growth at 43.8 ug/ml after 20 hrs relative to control; type: functional
[14] = tested on: Streptococcus mutans; assay: Antibacterial activity against Streptococcus mutans ATCC 25175 assessed as effect on planktonic growth at 0.17 ug/ml after 20 hrs relative to control; type: functional
[15] = tested on: Staphylococcus aureus; assay: Antibacterial activity against Staphylococcus aureus ATCC 25923 assessed as effect on planktonic growth at 43.8 ug/ml after 20 hrs relative to control; type: functional
[16] = tested on: Pseudomonas aeruginosa; assay: Antibacterial activity against Pseudomonas aeruginosa ATCC 27853 assessed as effect on planktonic growth at 0.68 ug/ml after 20 hrs relative to control; type: functional
[17] = tested on: Staphylococcus aureus; assay: Antibacterial activity against Staphylococcus aureus ATCC 25923 assessed as effect on planktonic growth at 2.73 ug/ml after 20 hrs relative to control; type: functional
[18] = tested on: Pseudomonas aeruginosa; assay: Antibacterial activity against Pseudomonas aeruginosa ATCC 27853 assessed as effect on planktonic growth at 0.17 ug/ml after 20 hrs relative to control; type: functional
[19] = tested on: Streptococcus mutans; assay: Antibacterial activity against Streptococcus mutans ATCC 25175 assessed as effect on planktonic growth at 0.34 ug/ml after 20 hrs relative to control; type: functional
[20] = tested on: Streptococcus mutans; assay: Antibacterial activity against Streptococcus mutans ATCC 25175 assessed as effect on planktonic growth at 1.37 ug/ml after 20 hrs relative to control; type: functional
[21] = tested on: Staphylococcus epidermidis; assay: Antibacterial activity against Staphylococcus epidermidis ATCC 35547 assessed as effect on planktonic growth at 5.5 ug/ml after 20 hrs relative to control; type: functional
[22] = tested on: Streptococcus mutans; assay: Antibacterial activity against Streptococcus mutans ATCC 25175 assessed as inhibition of biofilm formation after 20 hrs by crystal-violet staining method; type: functional; conditions: ATCC 25175, 20 h
[23] = tested on: Pseudomonas aeruginosa; assay: Antibacterial activity against Pseudomonas aeruginosa ATCC 27853 assessed as effect on planktonic growth at 10.9 ug/ml after 20 hrs relative to control; type: functional
[24] = tested on: Pseudomonas aeruginosa; assay: Antibacterial activity against Pseudomonas aeruginosa ATCC 27853 assessed as effect on planktonic growth at 87.5 ug/ml after 20 hrs relative to control; type: functional
[25] = tested on: Staphylococcus epidermidis; assay: Antibacterial activity against Staphylococcus epidermidis ATCC 35547 assessed as effect on planktonic growth at 0.17 ug/ml after 20 hrs relative to control; type: functional
[26] = tested on: Staphylococcus aureus; assay: Antibacterial activity against Staphylococcus aureus ATCC 25923 assessed as effect on planktonic growth at 0.17 ug/ml after 20 hrs relative to control; type: functional
[27] = tested on: Pseudomonas aeruginosa; assay: Antibacterial activity against Pseudomonas aeruginosa ATCC 27853 assessed as inhibition of biofilm formation after 20 hrs by crystal-violet staining method; type: functional, organism-based
[28] = tested on: Staphylococcus aureus; assay: Antibacterial activity against Staphylococcus aureus ATCC 25923 assessed as effect on planktonic growth at 0.34 ug/ml after 20 hrs relative to control; type: functional
[29] = tested on: Staphylococcus epidermidis; assay: Antibacterial activity against Staphylococcus epidermidis ATCC 35547 assessed as effect on planktonic growth at 0.68 ug/ml after 20 hrs relative to control; type: functional
[30] = tested on: Pseudomonas aeruginosa; assay: Antibacterial activity against Pseudomonas aeruginosa ATCC 27853 assessed as effect on planktonic growth at 21.9 ug/ml after 20 hrs relative to control; type: functional
[31] = tested on: Staphylococcus aureus; assay: Antibacterial activity against Staphylococcus aureus ATCC 25923 assessed as effect on planktonic growth at 1.37 ug/ml after 20 hrs relative to control; type: functional
[32] = tested on: Staphylococcus epidermidis; assay: Antibacterial activity against Staphylococcus epidermidis ATCC 35547 assessed as effect on planktonic growth at 0.34 ug/ml after 20 hrs relative to control; type: functional
[33] = tested on: Staphylococcus aureus; assay: Antibacterial activity against Staphylococcus aureus ATCC 25923 assessed as effect on planktonic growth at 0.68 ug/ml after 20 hrs relative to control; type: functional
[34] = tested on: Pseudomonas aeruginosa; assay: Antibacterial activity against Pseudomonas aeruginosa ATCC 27853 assessed as effect on planktonic growth at 2.73 ug/ml after 20 hrs relative to control; type: functional
[35] = tested on: Streptococcus mutans; assay: Antibacterial activity against Streptococcus mutans ATCC 25175 assessed as effect on planktonic growth at 5.5 ug/ml after 20 hrs relative to control; type: functional
[36] = tested on: Streptococcus mutans; assay: Antibacterial activity against Streptococcus mutans ATCC 25175 assessed as effect on planktonic growth at 2.73 ug/ml after 20 hrs relative to control; type: functional
[37] = tested on: Staphylococcus aureus; assay: Antibacterial activity against Staphylococcus aureus ATCC 25923 assessed as inhibition of biofilm formation after 20 hrs by crystal-violet staining method; type: functional, organism-based; conditions: ATCC 25923, 20 h
[38] = tested on: Streptococcus mutans; assay: Antibacterial activity against Streptococcus mutans ATCC 25175 assessed as effect on planktonic growth at 43.8 ug/ml after 20 hrs relative to control; type: functional
[39] = tested on: Pseudomonas aeruginosa; assay: Antibacterial activity against Pseudomonas aeruginosa ATCC 27853 assessed as effect on planktonic growth at 43.8 ug/ml after 20 hrs relative to control; type: functional
[40] = tested on: Staphylococcus epidermidis; assay: Antibacterial activity against Staphylococcus epidermidis ATCC 35547 assessed as effect on planktonic growth at 1.37 ug/ml after 20 hrs relative to control; type: functional
[41] = tested on: Staphylococcus epidermidis; assay: Antibacterial activity against Staphylococcus epidermidis ATCC 35547 assessed as inhibition of biofilm formation after 20 hrs by crystal-violet staining method; type: functional, organism-based
[42] = tested on: Pseudomonas aeruginosa; assay: Antibacterial activity against Pseudomonas aeruginosa ATCC 27853 assessed as effect on planktonic growth at 0.34 ug/ml after 20 hrs relative to control; type: functional
[43] = tested on: Staphylococcus epidermidis; assay: Antibacterial activity against Staphylococcus epidermidis ATCC 35547 assessed as effect on planktonic growth at 87.5 ug/ml after 20 hrs relative to control; type: functional
[44] = tested on: Staphylococcus aureus; assay: Antibacterial activity against Staphylococcus aureus ATCC 25923 assessed as effect on planktonic growth at 10.9 ug/ml after 20 hrs relative to control; type: functional
[45] = tested on: Pseudomonas aeruginosa; assay: Antibacterial activity against Pseudomonas aeruginosa ATCC 27853 assessed as effect on planktonic growth at 5.5 ug/ml after 20 hrs relative to control; type: functional
[46] = tested on: Staphylococcus aureus; assay: Antibacterial activity against Staphylococcus aureus ATCC 25923 assessed as effect on planktonic growth at 21.9 ug/ml after 20 hrs relative to control; type: functional

## O=C1C=C/C(=C/Br)O1
[1]
  inhibition at 6 µM: 26%

## COc1ccccc1C1=C(Br)C(=O)N(CC(C)C)/C1=C/c1ccc(C(F)(F)F)cc1
[2]
  Activity: -10.4%
[3]
  Activity: -6.4%
[4]
  Activity: 6%
[5]
  Activity: 36.6%
[6]
  Activity: -18.5%
[7]
  Activity: -19.3%
[8]
  Activity: -46.9%
[9]
  Activity: 91%
[10]
  inhibition at 44 µg/mL: 88.8%
[11]
  Activity: -12%
[12]
  Activity: 88.5%
[13]
  Activity: 40.1%
[14]
  Activity: 7.9%
[15]
  Activity: 59.8%
[16]
  Activity: -4%
[17]
  Activity: -21.7%
[18]
  Activity: -2.3%
[19]
  Activity: -5.4%
[20]
  Activity: 10.6%
[21]
  Activity: 1%
[22]
  IC50: 58.9 µM
[23]
  Activity: -4.1%
[24]
  Activity: 30.6%
[25]
  Activity: -16.7%
[26]
  Activity: 0%
[27]
  inhibition: Dose-dependent effect
[27]; ATCC 27853, 20 h
  IC50: 25.2 µg/mL (≈ 52.5 µM)
[28]
  Activity: -1.6%
[29]
  Activity: -10.2%
[30]
  Activity: 9.1%
[31]
  Activity: -14.9%
[32]
  Activity: -2.2%
[33]
  Activity: -5.2%
[34]
  Activity: -13.1%
[35]
  Activity: -15.8%
[36]
  Activity: -0.8%
[37]
  IC50: 95.1 µM
[38]
  Activity: -55.3%
[39]
  Activity: 34.8%
[40]
  Activity: 1.1%
[41]
  inhibition: Dose-dependent effect
[41]; ATCC 35547, 20 h
  IC50: 12.2 µg/mL (≈ 25.4 µM)
[42]
  Activity: -5.2%
[43]
  Activity: -5.5%
[44]
  Activity: -3.8%
[45]
  Activity: -15.8%
[46]
  Activity: 4.9%
